Results published in patent US9199975B2, “Biaryl imidazole derivatives for regulating CYP17” (Asana Biosciences, LLC, priority 2011, dated 2015).

Target: T1, human CYP17 (Homo sapiens, UniProt P05093)
T1 sequence (P05093 1-508): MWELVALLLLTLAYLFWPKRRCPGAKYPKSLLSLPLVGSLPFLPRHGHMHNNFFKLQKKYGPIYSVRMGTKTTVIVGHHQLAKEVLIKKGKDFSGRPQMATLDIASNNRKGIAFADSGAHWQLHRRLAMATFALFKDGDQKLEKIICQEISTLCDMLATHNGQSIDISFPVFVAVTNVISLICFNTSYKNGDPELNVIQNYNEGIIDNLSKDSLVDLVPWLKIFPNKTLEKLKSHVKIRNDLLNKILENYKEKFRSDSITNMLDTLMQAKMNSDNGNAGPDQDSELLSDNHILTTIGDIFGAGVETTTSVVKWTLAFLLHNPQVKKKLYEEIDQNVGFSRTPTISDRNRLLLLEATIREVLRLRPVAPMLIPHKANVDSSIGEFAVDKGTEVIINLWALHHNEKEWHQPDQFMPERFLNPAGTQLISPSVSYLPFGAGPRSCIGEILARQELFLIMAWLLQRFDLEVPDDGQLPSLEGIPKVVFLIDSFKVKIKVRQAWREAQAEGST
Test: Cell-based human CYP17 inhibition assay, H295R adrenocortical carcinoma cells
Set-up: H295R Adrenocortical carcinoma cells [NCI-H295A, ATCC Number CRL-2128, American Type Culture Collection; host or cells: H295R adrenocortical carcinoma cells
Conditions: 16 hours at 37° C., read-out: CYP17 (human H295R adrenal cells)
Procedure: Cell-Based Human CYP17 Inhibition Assay
A. Materials • 1. H295R Adrenocortical Carcinoma Cells and Growth Media: The media for the H295R Adrenocortical carcinoma cells [NCI-H295A, ATCC Number CRL-2128, American Type Culture Collection, Manassas, Va., US] (500 mL) was a DMEM:F12 Mix 1:1 with 5% […] BD Nu Serum; 1% (5 mL) ITS+Premix [BD Biosciences] and 1% Penstrep. • 2. LNCap-CYP17 Cells and Growth Media: Full length hCYP17a1 gene (NCBI Reference Sequence: NM_000102.3) was cloned in pCDNA3.1(+) vector between HindIII and XhoI site. The pCDNA3.1(+) vector contains the Neomycin resistance gene and was used for selection of stable cell line. The hCYP17a1 containing pCDNA3.1(+) was transfected into LNCap cells to create the LNCap-CYP17 cell line. The media for the LNCaP-CYP17 cells was RPMI 1640, 10% FBS, 1% PenStrep, Geneticin 400 μg/mL.
The H295R cells or LNCaP-hCYP17 cells were subcultured and 30,000 cells per well were seeded in a poly-d lysine plate and incubated overnight at 37° C. The next day the media was removed and 200 µL of fresh media with ^3H3-17α-hydroxy-pregnenolone (1:1000) was added. 50 μL of serially diluted compounds from a 5× plate (5 times the final desired concentration) was added. The working concentration range for active, new compounds started from a high concentration of […] with 3-fold serial dilutions generating up to 10 concentrations. The serial dilution in the 100× plate (in DMSO) and the stamping of a 5× plate (in media) from the 100× plate were carried out using a TECAN liquid handling device.
The plates were incubated overnight (16 hours) at 37° C. After 16 hours, the media was removed (approximately 220 μL) and an equal amount of chloroform was added, mixed and incubated for 30 minutes at 4 degrees. The plate was centrifuged at 4000 rpm for 15 minutes at 4° C., following which the top aqueous layer was carefully removed and added into a new deep well plate. An equal volume of activated 5% charcoal was added, mixed and incubated for 30 minutes at 4° C. The plate was then centrifuged at 4000 rpm for 15 minutes at 4° C. and the top layer carefully separated, avoiding any charcoal contamination, and placed in a white, clear bottom plate (plate cat #3610, Corning Life Sciences). An equal volume of Microscint™ 40 was added and mixed well. Following the incubation for 30 minutes, readings for the radiotracer were taken using a Microbeta® trilux.

Structure (SMILES) | IC50
CCC(c1ccc(-c2cccc(C#N)c2)cn1)n1ccnc1 (stereo not drawn) [Example 53, 3-[6-(1-Imidazol-1-yl-propyl)-pyridin-3-yl]-benzonitrile] | 50 to 200 nM
CCC(c1ccc(-c2ccc(CO)cc2)cn1)n1ccnc1 (stereo not drawn) [Example 41, {4-[6-(1-Imidazol-1-yl-propyl)-pyridin-3-yl]-phenyl}-methanol] | 50 to 200 nM
CC(c1cnc(-c2ccc(=O)[nH]c2)s1)n1ccnc1 (stereo not drawn) [Example 63, 5-[5-(1-Imidazol-1-yl-ethyl)-thiazol-2-yl]-1H-pyridin-2-one] | 201 to 10000 nM
CCC(c1ccc(-c2ccc(O)cc2)s1)n1ccnc1 (stereo not drawn) [Example 4, 4-(5-(1-(1H-imidazol-1-yl)propyl)thiophen-2-yl)phenol] | < 50 nM
CC(C)CC(c1ccc(-c2ccc(O)cc2)s1)n1ccnc1 (stereo not drawn) [Example 23, 4-(5-(1-(1H-imidazol-1-yl)-3-methylbutyl)-thiophen-2-yl)phenol] | < 50 nM
CC(C)(c1ccc(-c2ccc(O)cc2)s1)n1ccnc1 [Example 26, 4-[5-(1-Imidazol-1-yl-1-methyl-ethyl)-thiophen-2-yl]-phenol] | < 50 nM
CC(c1cnc(-c2ccc(F)cc2F)s1)n1ccnc1 (stereo not drawn) [Example 28, 2-(2,4-Difluoro-phenyl)-5-(1-imidazol-1-yl-ethyl)-thiazole] | < 50 nM
CCC(c1cnc(-c2ccc(OC)nc2)s1)n1ccnc1 (stereo not drawn) [Example 51, 5-[5-(1-Imidazol-1-yl-propyl)-thiazol-2-yl]-2-methoxy-pyridine] | 50 to 200 nM
COc1ccc(-c2ccc(C(C)n3ccnc3)nc2)cc1 (stereo not drawn) [Example 15, 2-(1-(1H-imidazol-1-yl)ethyl)-5-(4-methoxyphenyl)pyridine] | 50 to 200 nM
CCC(c1ccc(-c2ccc(COCOC)cc2)cn1)n1ccnc1 (stereo not drawn) [Example 11, 2-(1-(1H-imidazol-1-yl)propyl)-5-(4-((methoxymethoxy)methyl)-phenyl)pyridine] | 50 to 200 nM
CCC(c1ccc(-c2ccc(O)cc2)o1)n1ccnc1 (stereo not drawn) [Example 30, 4-[5-(1-Imidazol-1-yl-propyl)-furan-2-yl]-phenol] | < 50 nM
CCC(c1ccc(-c2cccc(F)c2)cn1)n1ccnc1 (stereo not drawn) [Example 45, 5-(3-Fluoro-phenyl)-2-(1-imidazol-1-yl-propyl)-pyridine] | < 50 nM
CCC(c1cccc(-c2ccc(OC)cc2)n1)n1ccnc1 (stereo not drawn) [Example 38, 2-(1-Imidazol-1-yl-propyl)-6-(4-methoxy-phenyl) pyridine] | 50 to 200 nM
CC(c1ccc(-c2ccc(=O)n(C(C)C)c2)s1)n1ccnc1 (stereo not drawn) [Example 21, 5-(5-(1-(1H-imidazol-1-yl)ethyl)thiophen-2-yl)-1-isopropylpyridin-2(1H)-one] | 50 to 200 nM
CCC(c1ccc(-c2cccc(O)c2)cn1)n1ccnc1 (stereo not drawn) [Example 8, 3-(6-(1-(1H-imidazol-1-yl)propyl)pyridin-3-yl)phenol] | < 50 nM
CC(c1ccc(-c2ccccc2F)cn1)n1ccnc1 (stereo not drawn) [Example 40, 5-(2-Fluoro-phenyl)-2-(1-imidazol-1-yl-ethyl)-pyridine] | 50 to 200 nM
COc1ccc(-c2cccc(C(C)n3ccnc3)n2)cc1 (stereo not drawn) [Example 42, 2-(1-Imidazol-1-yl-ethyl)-6-(4-methoxy-phenyl)-pyridine] | 50 to 200 nM
COc1ccc(-c2ccc(C(C)(C)n3ccnc3)s2)cc1 [Example 24, 1-(2-(5-(4-methoxyphenyl)-thiophen-2-yl)-propan-2-yl)-1H-imidazole] | < 50 nM
COc1ccc(-c2ncc(C(C)n3ccnc3)s2)cn1 (stereo not drawn) [Example 58, 5-[5-(1-Imidazol-1-yl-ethyl)-thiazol-2-yl]-2-methoxy-pyridine] | 50 to 200 nM
CCC(c1ccc(-c2ccccc2C#N)cn1)n1ccnc1 (stereo not drawn) [Example 18, 2-(6-(1-(1H-imidazol-1-yl)propyl)pyridin-3-yl)benzonitrile] | 201 to 10000 nM

Structure (SMILES) | IC50
CC(c1ccc(-c2ccc(F)cc2)cn1)n1ccnc1 (stereo not drawn) [Example 34, 5-(4-Fluoro-phenyl)-2-(1-imidazol-1-yl-ethyl)-pyridine] | < 50 nM
CCC(c1ccc(-c2ccc(OC)cc2)cn1)n1ccnc1 (stereo not drawn) [Example 47, 2-(1-Imidazol-1-yl-propyl)-5-(4-methoxy-phenyl)-pyridine] | 50 to 200 nM
CCC(c1cnc(-c2ccc(NC(=O)OC(C)(C)C)cc2)s1)n1ccnc1 (stereo not drawn) [Example 31, {4-[5-(1-Imidazol-1-yl-propyl)-thiazol-2-yl]-phenyl}-carbamic acid tert-butyl ester] | < 50 nM
CCC(c1ccc(-c2ccc(OC)cc2)o1)n1ccnc1 (stereo not drawn) [Example 27, 1-{1-[5-(4-Methoxy-phenyl)-furan-2-y]-propyl}-1H-imidazole] | < 50 nM
CC(c1ccc(-c2ccc(N)cc2)cn1)n1ccnc1 (stereo not drawn) [Example 14, 4-(6-(1-(1H-imidazol-1-yl)ethyl)pyridin-3-yl)aniline] | 201 to 10000 nM
CCC(c1ccc(-c2ccccc2O)cn1)n1ccnc1 (stereo not drawn) [Example 37, 2-[6-(1-Imidazol-1-yl-propyl)-pyridin-3-yl]-phenol] | < 50 nM
CCC(c1cnc(-c2cccc(F)c2)s1)n1ccnc1 (stereo not drawn) [Example 1, 5-(1-(1H-imidazol-1-yl)propyl)-2-(3-fluorophenyl)thiazole] | 50 to 200 nM
CCC(c1nnc(-c2ccc(F)cc2)s1)n1ccnc1 (stereo not drawn) [Example 19, 2-(1-(1H-imidazol-1-yl)propyl)-5-(4-fluorophenyl)-1,3,4-thiadiazole] | 50 to 200 nM
CCC(c1ccc(-c2cccc(OC)c2)cn1)n1ccnc1 (stereo not drawn) [Example 7, 2-(1-(1H-imidazol-1-yl)propyl)-5-(3-methoxyphenyl)pyridine] | < 50 nM
CCC(c1cnc(-c2ccc(F)cc2F)s1)n1ccnc1 (stereo not drawn) [Example 32, 2-(2,4-Difluoro-phenyl)-5-(1-imidazol-1-yl-propyl)-thiazole] | < 50 nM
COc1ccc(-c2ccc(C(C)n3ccnc3)s2)cn1 (stereo not drawn) [Example 25, 5-[5-(1-Imidazol-1-yl-ethyl)-thiophen-2-yl]-2-methoxy-pyridine] | < 50 nM
CC(c1ccc(-c2ccc(=O)n(C)c2)s1)n1ccnc1 (stereo not drawn) [Example 20, 5-(5-(1-(1H-imidazol-1-yl)ethyl)thiophen-2-yl)-1-methylpyridin-2(1H)-one] | < 50 nM
CCC(c1cnc(-c2ccc(=O)[nH]c2)s1)n1ccnc1 (stereo not drawn) [Example 59, 5-[5-(1-Imidazol-1-yl-propyl)-thiazol-2-yl]-1H-pyridin-2-one] | 201 to 10000 nM
CCC(c1ccc(-c2ccc(NC(C)=O)cc2)cn1)n1ccnc1 (stereo not drawn) [Example 43, N-{4-[6-(1-Imidazol-1-yl-propyl)-pyridin-3-yl]-phenyl}-acetamide] | 50 to 200 nM
CCC(c1ccc(-c2ccc(C(=O)O)cc2)cn1)n1ccnc1 (stereo not drawn) [Example 6, 4-(6-(1-(1H-imidazol-1-yl)propyl)pyridin-3-yl)benzoic acid] | 201 to 10000 nM
CCOC(=O)c1ccc(-c2ccc(C(CC)n3ccnc3)nc2)cc1 (stereo not drawn) [Example 5, Ethyl 4-(6-(1-(1H-imidazol-1-yl)propyl)pyridin-3-yl)benzoate] | 50 to 200 nM
CCC(c1cnc(-c2ccc(OC)cc2)s1)n1ccnc1 (stereo not drawn) [Example 35, 5-(1-Imidazol-1-yl-propyl)-2-(4-methoxy-phenyl)-thiazole] | 50 to 200 nM
CCC(c1cnc(-c2ccc(O)cc2)s1)n1ccnc1 (stereo not drawn) [Example 60, 4-[5-(1-Imidazol-1-yl-propyl)-thiazol-2-yl]-phenol] | 50 to 200 nM
CCC(c1cnc(-c2cn[nH]c2)s1)n1ccnc1 (stereo not drawn) [Example 44, 5-(1-Imidazol-1-yl-propyl)-2-(1H-pyrazol-4-yl)-thiazole] | 50 to 200 nM
